Consider 21 compounds from US20220119379A1, “IMMUNOMODULATOR” (HITGEN INC., priority 2019, published 2022).

Assay [1] deals with Sting protein (Homo sapiens, UniProt Q86WV6). The assay can be described thus: Binding affinity test of the compound and Sting protein by protein thermal transfer test (TSA). The conditions noted are these: Kd fitted from change of ΔTm with compound concentration. On the procedure:
The protein thermal transfer test (TSA) was used to determine the binding affinity of the compound to Sting protein. The 100 ug/ml Sting protein was mixed with different concentrations of the compound and 5× SYPRO Orange dye in a buffer of 20 mM Hepes, 150 mM NaCl, 1 mM MgCl2, 1 mM DTT, pH=7.5. The protein dissolution curve was measured on a qPCR instrument, the Tm value was fitted with Protein Thermal Shift Software 1.3 software, and the Tm difference of the protein was calculated when different concentrations of compound and no compound were added. The dissociation constant Kd was fitted and obtained according to the change of ΔTm with the concentration of the compound. […] The Kd value of each compound is classified according to the following instructions: […]

The target of assay [2] is T1, Sting protein (Homo sapiens, UniProt Q86WV6, G230A/H232R/R293Q/R71H).
T1 construct: endogenous in cells; host or cells: THP1 cells (Shanghai Cell Bank)
T1 sequence (Q86WV6 whole entry R71H/G230A/H232R/R293Q): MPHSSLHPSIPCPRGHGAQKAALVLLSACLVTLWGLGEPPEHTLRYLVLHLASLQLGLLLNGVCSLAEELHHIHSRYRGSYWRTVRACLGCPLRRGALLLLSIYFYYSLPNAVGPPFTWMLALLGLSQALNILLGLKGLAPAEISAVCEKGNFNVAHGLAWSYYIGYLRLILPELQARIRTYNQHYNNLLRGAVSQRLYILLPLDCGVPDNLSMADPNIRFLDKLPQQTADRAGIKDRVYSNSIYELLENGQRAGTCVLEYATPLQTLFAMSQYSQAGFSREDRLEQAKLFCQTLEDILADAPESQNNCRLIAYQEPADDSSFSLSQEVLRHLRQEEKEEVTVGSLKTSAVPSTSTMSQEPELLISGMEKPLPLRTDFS
The assay can be described thus: Agonistic function test on Sting protein: IFN-β and CXCL10 (IP10) cytokines produced by THP1 cells (ELISA). The format is cell-based. The conditions noted are these: for EC50: 18 hours, ELISA of supernatant; for activity of stimulating IFN-β and CXCL10 (IP10) cytokines produced by THP1 cells (in words): listed compounds compared with the reference compound. On the procedure:
In this experiment, the function of sting agonist was evaluated by detecting the changes of IFN-β and CXCL10 (IP10) cytokines produced by human peripheral blood mononuclear cell line THP1 cells (Shanghai Cell Bank) stimulated by the compounds. On the first day of the experiment, the ELISA plate was coated according to the IFN-β (R&D, #DY814-05) and IP10 (BD, #550926) ELISA test kit instructions. The compound was dissolved into DMSO stock solution and diluted with culture medium to a 2× working concentration, added to a 96-well plate, 100 μL per well. The THP1 cells in the logarithmic growth phase were taken to count, and were diluted to a concentration of 2*10^6/mL, added to the above-mentioned 96-well plate containing the compounds, with […], per well, mixed well, and incubated in a 37° C., 5% CO2 incubator for 18 hours. On the second day, the above cell culture supernatant was taken, 100 μL per well, and tested according to IFN-β and IP10 ELISA test kits respectively. The OD450 value was read, and converted into IFN-β and IP10 concentration according to the standard curve, and fitted with GraphPad 5.0 to calculate the EC50 value of the dose-efficiency curve.
(ELISA stands for enzyme-linked immunosorbent assay.)

Each structure is given as a SMILES string. Like-named read-outs stand apart in the source and are kept apart here.

Chain of Sting protein (Homo sapiens, UniProt Q86WV6) (Q86WV6 whole entry H232R, species assumed): as the sequence (Q86WV6 whole entry R71H/G230A/H232R/R293Q) above, with H71R, A230G, Q293R counted along it

In the case of `CCc1nc(C)sc1C(=O)Nc1nc2cc(C(N)=O)cc(OCCCN3CCOCC3)c2n1C/C=C/Cn1c(NC(=O)c2cc(C)nn2CC)nc2cc(C(N)=O)cc(OC)c21` [Example 1], the dissociation constant (Kd) (in general, the constant that tells how readily two partners part at equilibrium) in assay [1] was 1000 to 10000 nM. Also, the EC50 (commonly the concentration needed to bring the measured effect to its halfway point) in assay [2] (read-out: IFN-β EC50) was in the range of 100 to 1000 nM; in assay [2] (read-out: IP10 EC50) it was 10 to 100 nM.

As to `CCc1nc(C)sc1C(=O)Nc1nc2cc(C(N)=O)cc(OC)c2n1C/C=C/Cn1c(NC(=O)c2sc(C)nc2CC)nc2cc(C(N)=O)cc(OCCCN3CCOCC3)c21` [Example 3], the Kd in assay [1] was 1000 to 10000 nM. The results for the 50% effective concentration (EC50) in assay [2] (read-out: IFN-β EC50) and in assay [2] (read-out: IP10 EC50) were 100 to 1000 nM and 10 to 100 nM, respectively.

Consider `CCc1nc(C)sc1C(=O)Nc1nc2cc(C(N)=O)cc(OCCCN3CCOCC3)c2n1C/C=C/Cn1c(NC(=O)c2cc(C)nn2CC)nc2cc(C(N)=O)cc(SC)c21` [Example 4], for which the dissociation constant (Kd) in assay [1] lay within 1000 to 10000 nM. The results for the EC50 in assay [2] (read-out: IFN-β EC50) and in assay [2] (read-out: IP10 EC50) were 10 to 100 nM and under 10 nM, respectively. Moreover, the “activity of stimulating IFN-β and CXCL10 (IP10) cytokines produced by THP1 cells (in words)” value (from here on “activity of stimulating IFN-β and CXCL10”) in assay [2] is given as “comparable or even higher activity”.

As for `CCc1nc(C)sc1C(=O)Nc1nc2cc(C(N)=O)cc(OC)c2n1C/C=C/Cn1c(NC(=O)c2cc(C)nn2CC)nc2cc(C(N)=O)cc(SCCCN3CCOCC3)c21` [Example 6], the Kd in assay [1] was in the range of 1000 to 10000 nM. Moreover, the 50% effective concentration (EC50) in assay [2] (read-out: IFN-β EC50) and in assay [2] (read-out: IP10 EC50) was 100 to 1000 nM each time.

Consider `CCc1nc(C)sc1C(=O)Nc1nc2cc(C(N)=O)cc(OCCCN3CCN(C)CC3)c2n1C/C=C/Cn1c(NC(=O)c2cc(C)nn2CC)nc2cc(C(N)=O)cc(OC)c21` [Example 7, (E)-N-(5-carbamoyl-1-(4-(5-carbamoyl-2-(1-ethyl-3-methyl-1H-pyrazole-5-formylamino)-7-methoxy-1H-benzo[d]imidazol-1-yl)but-2-en-1-yl)-7-(3-(4-methylpiperazin-1-yl)propoxy)-1H-benzo[d]imidazol-2-yl)-4-ethyl-2-methylthiazole-5-formylamide], for which the equilibrium dissociation constant (Kd) in assay [1] was in the range of 1000 to 10000 nM. In addition, the EC50 in assay [2] (read-out: IFN-β EC50) and in assay [2] (read-out: IP10 EC50) was 100 to 1000 nM in each case.

For `CCc1nc(C)sc1C(=O)Nc1nc2cc(C(N)=O)cc(OCCCN3CCN(CC)CC3)c2n1C/C=C/Cn1c(NC(=O)c2cc(C)nn2CC)nc2cc(C(N)=O)cc(OC)c21` [Example 8], the Kd in assay [1] lay within 1000 to 10000 nM. Besides, the values for the half-maximal effective concentration (EC50) in assay [2] (read-out: IFN-β EC50) and in assay [2] (read-out: IP10 EC50) were 100 to 1000 nM and 10 to 100 nM, respectively.

`CCc1nc(C)sc1C(=O)Nc1nc2cc(C(N)=O)cc(OCCCN3CCN(C(C)C)CC3)c2n1C/C=C/Cn1c(NC(=O)c2cc(C)nn2CC)nc2cc(C(N)=O)cc(OC)c21` [Example 9]: the Kd in assay [1] lay in the range of 1000 to 10000 nM. Further, the EC50 in assay [2] (read-out: IFN-β EC50) was in the range of 100 to 1000 nM; in assay [2] (read-out: IP10 EC50), 10 to 100 nM.

As to `CCc1nc(C)sc1C(=O)Nc1nc2cc(C(N)=O)cc(OCCCN3CCN(C4CC4)CC3)c2n1C/C=C/Cn1c(NC(=O)c2cc(C)nn2CC)nc2cc(C(N)=O)cc(OC)c21` [Example 10], the Kd in assay [1] was in the range of 1000 to 10000 nM. In addition, the EC50 fell in the range of 100 to 1000 nM in assay [2] (read-out: IFN-β EC50) and 10 to 100 nM in assay [2] (read-out: IP10 EC50).

Consider `CCc1nc(C)sc1C(=O)Nc1nc2cc(C(N)=O)cc(OCCCN3CCN(C(C)=O)CC3)c2n1C/C=C/Cn1c(NC(=O)c2cc(C)nn2CC)nc2cc(C(N)=O)cc(OC)c21` [Example 11], for which, in assay [1], the equilibrium dissociation constant (Kd) was in the range of 1000 to 10000 nM. Besides, the EC50 in assay [2] (read-out: IFN-β EC50) lay within 100 to 1000 nM; in assay [2] (read-out: IP10 EC50), 10 to 100 nM.

As to `CCc1nc(C)sc1C(=O)Nc1nc2cc(C(N)=O)cc(OC)c2n1C/C=C/Cn1c(NC(=O)c2cc(C)nn2CC)nc2cc(C(N)=O)cc(OCCCN3CCN(C)CC3)c21` [Example 12], the Kd in assay [1] was in the range of 1000 to 10000 nM. Also, the half-maximal effective concentration (EC50) in assay [2] (read-out: IP10 EC50) was in the range of 100 to 1000 nM.

On to `CCc1nc(C)sc1C(=O)Nc1nc2cc(C(N)=O)cc(OC)c2n1C/C=C/Cn1c(NC(=O)c2cc(C)nn2CC)nc2cc(C(N)=O)cc(OCCCN3CCN(CC)CC3)c21` [Example 13], for which, in assay [1], the Kd lay in the range of 1000 to 10000 nM. Also, the EC50 in assay [2] (read-out: IFN-β EC50) is 100 to 1000 nM; in assay [2] (read-out: IP10 EC50) it was 10 to 100 nM.

Turning to `CCc1nc(C)sc1C(=O)Nc1nc2cc(C(N)=O)cc(OC)c2n1C/C=C/Cn1c(NC(=O)c2cc(C)nn2CC)nc2cc(C(N)=O)cc(OCCCN3CCN(C(C)C)CC3)c21` [Example 14], the Kd in assay [1] is 1000 to 10000 nM. Further, the concentration for a half-maximal effect (EC50) in assay [2] (read-out: IFN-β EC50) and in assay [2] (read-out: IP10 EC50) was 100 to 1000 nM each time.

Consider `CCc1nc(C)sc1C(=O)Nc1nc2cc(C(N)=O)cc(OCCCN3CCN(C)CC3)c2n1C/C=C/Cn1c(NC(=O)c2cc(C)nn2CC)nc2cc(C(N)=O)cc(SC)c21` [Example 16], for which the Kd in assay [1] was in the range of 1000 to 10000 nM. For the same compound, in assay [2] (read-out: IP10 EC50), the half-maximal effective concentration (EC50) was 100 to 1000 nM.

For the compound `CCc1nc(C)sc1C(=O)Nc1nc2cc(C(N)=O)cc(OCCCN3CCN(C(C)C)CC3)c2n1C/C=C/Cn1c(NC(=O)c2cc(C)nn2CC)nc2cc(C(N)=O)cc(SC)c21` [Example 18], in assay [1], the dissociation constant Kd fell in the range of 1000 to 10000 nM. Besides, the concentration giving a half-maximal response (EC50) was 100 to 1000 nM in assay [2] (read-out: IFN-β EC50) and 10 to 100 nM in assay [2] (read-out: IP10 EC50).

For the compound `CCc1nc(C)sc1C(=O)Nc1nc2cc(C(N)=O)cc(OCCCN3CCN(C4CC4)CC3)c2n1C/C=C/Cn1c(NC(=O)c2cc(C)nn2CC)nc2cc(C(N)=O)cc(SC)c21` [Example 19], the equilibrium dissociation constant (Kd) in assay [1] fell in the range of 1000 to 10000 nM. Further, the half-maximal effective concentration (EC50) in assay [2] (read-out: IFN-β EC50) and in assay [2] (read-out: IP10 EC50) was under 10 nM throughout. The “activity of stimulating IFN-β and CXCL10” value in assay [2] is “comparable or even higher activity”.

`CCc1nc(C)sc1C(=O)Nc1nc2cc(C(N)=O)cc(SC)c2n1C/C=C/Cn1c(NC(=O)c2cc(C)nn2CC)nc2cc(C(N)=O)cc(OCCCN3CCN(C)CC3)c21` [Example 20]: in assay [1], the equilibrium dissociation constant (Kd) lay in the range of 1000 to 10000 nM. Besides, the 50% effective concentration (EC50) is 100 to 1000 nM in assay [2] (read-out: IFN-β EC50) and 10 to 100 nM in assay [2] (read-out: IP10 EC50).

For `CCc1nc(C)sc1C(=O)Nc1nc2cc(C(N)=O)cc(SC)c2n1C/C=C/Cn1c(NC(=O)c2cc(C)nn2CC)nc2cc(C(N)=O)cc(OCCCN3CCN(CC)CC3)c21` [Example 21], the dissociation constant Kd in assay [1] lay within 1000 to 10000 nM. For the same compound, the EC50 lay in the range of 100 to 1000 nM in assay [2] (read-out: IFN-β EC50) and 10 to 100 nM in assay [2] (read-out: IP10 EC50).

As to `CCc1nc(C)sc1C(=O)Nc1nc2cc(C(N)=O)cc(SC)c2n1C/C=C/Cn1c(NC(=O)c2cc(C)nn2CC)nc2cc(C(N)=O)cc(OCCCN3CCN(C(C)C)CC3)c21` [Example 22], the equilibrium dissociation constant (Kd) in assay [1] lay in the range of 1000 to 10000 nM. Further, the concentration giving a half-maximal response (EC50) in assay [2] (read-out: IFN-β EC50) fell in the range of 100 to 1000 nM; in assay [2] (read-out: IP10 EC50), 10 to 100 nM.

Consider `CCc1nc(C)sc1C(=O)Nc1nc2cc(C(N)=O)cc(SC)c2n1C/C=C/Cn1c(NC(=O)c2cc(C)nn2CC)nc2cc(C(N)=O)cc(OCCCN3CCN(C4CC4)CC3)c21` [Example 23], for which, in assay [1], the dissociation constant Kd lay within 1000 to 10000 nM. The EC50 in assay [2] (read-out: IFN-β EC50) and in assay [2] (read-out: IP10 EC50) was 10 to 100 nM each time. For the same compound, in assay [2], the “activity of stimulating IFN-β and CXCL10” value was “comparable or even higher activity”.

With `CCC(=O)N1CCN(CCCOc2cc(C(N)=O)cc3nc(NC(=O)c4cc(C)nn4CC)n(C/C=C/Cn4c(NC(=O)c5sc(C)nc5CC)nc5cc(C(N)=O)cc(OC)c54)c23)CC1` [Example 30], the Kd in assay [1] is 1000 to 10000 nM. Besides, the EC50 in assay [2] (read-out: IFN-β EC50) lay in the range of 100 to 1000 nM; in assay [2] (read-out: IP10 EC50), 10 to 100 nM.

In the case of `CCn1nc(C)cc1C(=O)Nc1nc2cc(C(N)=O)cc(OCCCN3CCOCC3)c2n1C/C=C/Cn1c(NC(=O)c2cc(C)nn2CC)nc2cc(C(N)=O)cc(SC)c21` [Example 54, (E)-1-(4-(5-carbamoyl-2-(1-ethyl-3-methyl-1H-pyrazole-5-formylamino)-7-(3-morpholinopropoxy)-1H-benzo[d]imidazol-1-yl)but-2-en-1-yl)-2-(1-ethyl-3-methyl-1H-pyrazole-5-carboxamino)-7-(methylthio)-1H-benzo[d]imidazole-5-formylamide], in assay [1], the Kd lay within 1000 to 10000 nM.
